Data as given in ChEMBL document CHEMBL1201862, “PubChem BioAssay data set” (2004).
Active and inactive are the calls of the source.

Key:
Protein skinhead-1 = target: T1, Protein skinhead-1 (Caenorhabditis elegans, UniProt P34707); assay type: functional
T1 sequence (P34707 whole entry): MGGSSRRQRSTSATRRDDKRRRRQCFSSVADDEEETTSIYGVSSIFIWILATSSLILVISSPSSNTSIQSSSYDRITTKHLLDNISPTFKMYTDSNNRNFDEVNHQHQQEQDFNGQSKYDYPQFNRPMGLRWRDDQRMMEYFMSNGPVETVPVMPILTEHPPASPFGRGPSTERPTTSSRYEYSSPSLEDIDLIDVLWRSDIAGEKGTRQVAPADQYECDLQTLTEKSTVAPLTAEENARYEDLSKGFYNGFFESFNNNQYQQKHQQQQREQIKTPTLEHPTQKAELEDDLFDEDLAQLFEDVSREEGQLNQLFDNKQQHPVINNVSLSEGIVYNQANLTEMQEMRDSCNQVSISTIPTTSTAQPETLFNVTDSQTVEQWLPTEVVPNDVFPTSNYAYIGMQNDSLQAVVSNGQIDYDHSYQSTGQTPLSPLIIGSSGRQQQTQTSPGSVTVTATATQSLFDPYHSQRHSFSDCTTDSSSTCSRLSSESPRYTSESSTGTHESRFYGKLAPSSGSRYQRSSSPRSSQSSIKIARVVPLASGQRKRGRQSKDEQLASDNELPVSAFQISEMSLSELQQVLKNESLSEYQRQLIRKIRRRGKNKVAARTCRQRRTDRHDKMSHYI

[1] = target: T2, Short transient receptor potential channel 4 (Mus musculus, UniProt Q9QUQ5); test: block of DAMGO-driven TRPC4 calcium entry – cell-based, HEK293 TRPC4/mu-opioid, Fluo-4 calcium, dose response (AID 434942); assay type: functional;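 note: potency of inhibitors blocking the TRPC4 calcium response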
T2 sequence (Q9QUQ5 whole entry): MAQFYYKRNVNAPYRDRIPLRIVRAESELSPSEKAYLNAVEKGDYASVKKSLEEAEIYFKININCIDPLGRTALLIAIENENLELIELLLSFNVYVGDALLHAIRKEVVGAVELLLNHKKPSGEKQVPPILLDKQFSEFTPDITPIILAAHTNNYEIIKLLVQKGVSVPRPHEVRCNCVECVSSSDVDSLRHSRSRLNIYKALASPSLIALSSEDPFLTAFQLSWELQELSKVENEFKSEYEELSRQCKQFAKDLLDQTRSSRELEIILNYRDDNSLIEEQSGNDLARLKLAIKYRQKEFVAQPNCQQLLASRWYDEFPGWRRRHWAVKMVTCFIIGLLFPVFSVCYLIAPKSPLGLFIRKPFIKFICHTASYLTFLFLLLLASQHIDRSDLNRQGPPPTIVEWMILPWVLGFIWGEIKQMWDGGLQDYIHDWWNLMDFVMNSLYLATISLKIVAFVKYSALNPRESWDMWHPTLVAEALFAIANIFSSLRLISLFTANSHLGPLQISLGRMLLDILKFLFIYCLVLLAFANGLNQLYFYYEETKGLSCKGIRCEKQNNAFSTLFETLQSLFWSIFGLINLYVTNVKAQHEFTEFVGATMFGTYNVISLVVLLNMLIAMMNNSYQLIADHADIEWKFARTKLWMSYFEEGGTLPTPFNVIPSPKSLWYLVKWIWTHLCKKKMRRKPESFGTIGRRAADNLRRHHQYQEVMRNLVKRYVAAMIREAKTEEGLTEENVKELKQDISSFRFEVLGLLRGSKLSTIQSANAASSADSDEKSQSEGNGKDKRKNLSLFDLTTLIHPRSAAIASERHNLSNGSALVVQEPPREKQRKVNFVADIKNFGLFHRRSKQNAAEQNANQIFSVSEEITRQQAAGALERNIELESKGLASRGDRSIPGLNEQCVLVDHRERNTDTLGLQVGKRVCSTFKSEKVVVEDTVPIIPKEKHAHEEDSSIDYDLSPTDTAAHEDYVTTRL

[2] = Luminescence Cell-Based Dose Response HTS to Identify Activators of Luciferase Translation or Activity in H4 […] Cells. [Related pubchem assays: 1829 (Project Summary), 1814 (Primary HTS)]; assay type: functional
[3] = Luminescence Cell-Based Dose Confirmation HTS to Identify Activators of 5'UTR Stem-Loop Driven Alpha-Synuclein mRNA Translation in H4 Neuroglioblastoma Cells. [Related pubchem assays: 1829 (Project Summary), 1814 (Primary HTS)]; assay type: functional
H4 = test: Luminescence Cell-Based Dose Response HTS to Identify Activators of 5'UTR Stem-Loop Driven Prion Protein mRNA Translation in H4 Neuroglioblastoma Cells. [Related pubchem assays: 1829 (Project Summary), 1814 (Primary HTS)]; assay type: functional; conditions: Homo sapiens
[4] = target: Induced myeloid leukemia cell differentiation protein Mcl-1 (Homo sapiens, UniProt Q07820); assay type: functional
Sequence of Induced myeloid leukemia cell differentiation protein Mcl-1 (Q07820 whole entry): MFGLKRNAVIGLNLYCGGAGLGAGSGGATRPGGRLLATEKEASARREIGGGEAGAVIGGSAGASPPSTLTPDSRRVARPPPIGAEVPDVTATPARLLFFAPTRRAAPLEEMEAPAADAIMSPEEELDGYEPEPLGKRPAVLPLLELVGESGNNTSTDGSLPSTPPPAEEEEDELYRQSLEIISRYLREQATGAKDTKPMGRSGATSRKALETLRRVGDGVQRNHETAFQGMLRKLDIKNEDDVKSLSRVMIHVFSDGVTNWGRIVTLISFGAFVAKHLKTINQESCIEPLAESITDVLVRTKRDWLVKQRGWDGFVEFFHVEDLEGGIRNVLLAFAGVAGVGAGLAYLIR

[5] = target: T3, Polyadenylate-binding protein 1 (Homo sapiens, UniProt P11940); test: MLLE binding blockers, Cy5 peptide tracer – biochemical, fluorescence polarization, Cy5-PAM2 peptide, secondary, miRNA deadenylation inhibitor project, dose response (AID 602260); assay type: functional; conditions: read-out: IC50_Mean
T3 sequence (P11940 whole entry, the tested form may be a part): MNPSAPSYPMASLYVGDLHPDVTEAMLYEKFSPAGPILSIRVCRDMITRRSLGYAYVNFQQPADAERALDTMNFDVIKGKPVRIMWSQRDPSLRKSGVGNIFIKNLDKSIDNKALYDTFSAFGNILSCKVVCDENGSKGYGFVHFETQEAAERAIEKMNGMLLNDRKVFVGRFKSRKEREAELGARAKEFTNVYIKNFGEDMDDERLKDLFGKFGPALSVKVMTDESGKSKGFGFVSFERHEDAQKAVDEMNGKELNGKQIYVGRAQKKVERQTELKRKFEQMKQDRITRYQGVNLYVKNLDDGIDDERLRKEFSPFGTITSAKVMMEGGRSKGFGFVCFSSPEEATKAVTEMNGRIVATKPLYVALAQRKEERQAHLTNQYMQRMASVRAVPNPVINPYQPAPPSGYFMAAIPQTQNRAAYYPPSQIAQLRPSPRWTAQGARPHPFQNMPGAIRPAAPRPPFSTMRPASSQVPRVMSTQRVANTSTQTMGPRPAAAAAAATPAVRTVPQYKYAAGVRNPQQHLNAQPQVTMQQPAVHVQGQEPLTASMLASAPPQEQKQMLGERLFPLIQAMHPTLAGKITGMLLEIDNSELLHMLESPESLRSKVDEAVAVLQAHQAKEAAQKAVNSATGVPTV

[6] = target: T3, Polyadenylate-binding protein 1; test: MLLE domain peptide-binding blockers, IC50 – biochemical, fluorescence polarization, FITC-PAM2 peptide, dose response (AID 602259); assay type: functional; conditions: read-out: IC50_Mean
BJ [7] = test: cells; assay type: functional, cell-based; conditions: Homo sapiens
BJ [8] = test: BJ-TERT-LT-ST fibroblast viability loss – cell-based, RAS-independent, luminescence, dose response (AID 1935); assay type: functional; conditions: Homo sapiens;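 note: BJ fibroblasts immortalized with TERT plus LT and ST oncogenes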
[9] = DRD fibroblast viability loss – cell-based, non-viral oncogenic, luminescence, dose response (AID 1934); assay type: functional; conditions: Homo sapiens
BJ [10] = test: BJ-TERT fibroblast viability loss – cell-based, RAS-independent, luminescence, dose response (AID 1933); assay type: functional; conditions: Homo sapiens
Nonstructural protein 1 = Nonstructural protein 1 (Influenza A virus, UniProt Q194T2); assay type: functional, Influenza A virus (A/California/07/2009(H1N1))
Sequence of Nonstructural protein 1 (Q194T2 whole entry): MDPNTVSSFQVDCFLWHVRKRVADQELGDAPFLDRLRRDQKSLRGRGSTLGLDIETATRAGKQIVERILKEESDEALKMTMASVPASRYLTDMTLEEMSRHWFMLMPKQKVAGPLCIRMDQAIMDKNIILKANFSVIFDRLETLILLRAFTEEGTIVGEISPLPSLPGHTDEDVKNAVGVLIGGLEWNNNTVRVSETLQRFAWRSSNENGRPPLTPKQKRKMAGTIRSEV

INS1 = test: INS-1E survival protection against cytokine death – cell-based, luminescence, retest, dose response (AID 449756); assay type: functional; conditions: Rattus norvegicus;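 note: cell death triggered by IL-1 beta plus TNF-alpha plus IFN-gamma mixture; protective hits raise ATP signal compared with cytokine alone wells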
Fatty acid synthase = Fatty acid synthase (Homo sapiens, UniProt P49327); test: inhibition of human FAS-TE enzyme activity – biochemical, kinetic fluorescence intensity, dose response (AID 624326); assay type: functional;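 note: rate of fluorescence rise from hydrolysis of a fluorogenic O-methyl fluorescein ester substrate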
Sequence of Fatty acid synthase (P49327 whole entry, the tested form may be a part): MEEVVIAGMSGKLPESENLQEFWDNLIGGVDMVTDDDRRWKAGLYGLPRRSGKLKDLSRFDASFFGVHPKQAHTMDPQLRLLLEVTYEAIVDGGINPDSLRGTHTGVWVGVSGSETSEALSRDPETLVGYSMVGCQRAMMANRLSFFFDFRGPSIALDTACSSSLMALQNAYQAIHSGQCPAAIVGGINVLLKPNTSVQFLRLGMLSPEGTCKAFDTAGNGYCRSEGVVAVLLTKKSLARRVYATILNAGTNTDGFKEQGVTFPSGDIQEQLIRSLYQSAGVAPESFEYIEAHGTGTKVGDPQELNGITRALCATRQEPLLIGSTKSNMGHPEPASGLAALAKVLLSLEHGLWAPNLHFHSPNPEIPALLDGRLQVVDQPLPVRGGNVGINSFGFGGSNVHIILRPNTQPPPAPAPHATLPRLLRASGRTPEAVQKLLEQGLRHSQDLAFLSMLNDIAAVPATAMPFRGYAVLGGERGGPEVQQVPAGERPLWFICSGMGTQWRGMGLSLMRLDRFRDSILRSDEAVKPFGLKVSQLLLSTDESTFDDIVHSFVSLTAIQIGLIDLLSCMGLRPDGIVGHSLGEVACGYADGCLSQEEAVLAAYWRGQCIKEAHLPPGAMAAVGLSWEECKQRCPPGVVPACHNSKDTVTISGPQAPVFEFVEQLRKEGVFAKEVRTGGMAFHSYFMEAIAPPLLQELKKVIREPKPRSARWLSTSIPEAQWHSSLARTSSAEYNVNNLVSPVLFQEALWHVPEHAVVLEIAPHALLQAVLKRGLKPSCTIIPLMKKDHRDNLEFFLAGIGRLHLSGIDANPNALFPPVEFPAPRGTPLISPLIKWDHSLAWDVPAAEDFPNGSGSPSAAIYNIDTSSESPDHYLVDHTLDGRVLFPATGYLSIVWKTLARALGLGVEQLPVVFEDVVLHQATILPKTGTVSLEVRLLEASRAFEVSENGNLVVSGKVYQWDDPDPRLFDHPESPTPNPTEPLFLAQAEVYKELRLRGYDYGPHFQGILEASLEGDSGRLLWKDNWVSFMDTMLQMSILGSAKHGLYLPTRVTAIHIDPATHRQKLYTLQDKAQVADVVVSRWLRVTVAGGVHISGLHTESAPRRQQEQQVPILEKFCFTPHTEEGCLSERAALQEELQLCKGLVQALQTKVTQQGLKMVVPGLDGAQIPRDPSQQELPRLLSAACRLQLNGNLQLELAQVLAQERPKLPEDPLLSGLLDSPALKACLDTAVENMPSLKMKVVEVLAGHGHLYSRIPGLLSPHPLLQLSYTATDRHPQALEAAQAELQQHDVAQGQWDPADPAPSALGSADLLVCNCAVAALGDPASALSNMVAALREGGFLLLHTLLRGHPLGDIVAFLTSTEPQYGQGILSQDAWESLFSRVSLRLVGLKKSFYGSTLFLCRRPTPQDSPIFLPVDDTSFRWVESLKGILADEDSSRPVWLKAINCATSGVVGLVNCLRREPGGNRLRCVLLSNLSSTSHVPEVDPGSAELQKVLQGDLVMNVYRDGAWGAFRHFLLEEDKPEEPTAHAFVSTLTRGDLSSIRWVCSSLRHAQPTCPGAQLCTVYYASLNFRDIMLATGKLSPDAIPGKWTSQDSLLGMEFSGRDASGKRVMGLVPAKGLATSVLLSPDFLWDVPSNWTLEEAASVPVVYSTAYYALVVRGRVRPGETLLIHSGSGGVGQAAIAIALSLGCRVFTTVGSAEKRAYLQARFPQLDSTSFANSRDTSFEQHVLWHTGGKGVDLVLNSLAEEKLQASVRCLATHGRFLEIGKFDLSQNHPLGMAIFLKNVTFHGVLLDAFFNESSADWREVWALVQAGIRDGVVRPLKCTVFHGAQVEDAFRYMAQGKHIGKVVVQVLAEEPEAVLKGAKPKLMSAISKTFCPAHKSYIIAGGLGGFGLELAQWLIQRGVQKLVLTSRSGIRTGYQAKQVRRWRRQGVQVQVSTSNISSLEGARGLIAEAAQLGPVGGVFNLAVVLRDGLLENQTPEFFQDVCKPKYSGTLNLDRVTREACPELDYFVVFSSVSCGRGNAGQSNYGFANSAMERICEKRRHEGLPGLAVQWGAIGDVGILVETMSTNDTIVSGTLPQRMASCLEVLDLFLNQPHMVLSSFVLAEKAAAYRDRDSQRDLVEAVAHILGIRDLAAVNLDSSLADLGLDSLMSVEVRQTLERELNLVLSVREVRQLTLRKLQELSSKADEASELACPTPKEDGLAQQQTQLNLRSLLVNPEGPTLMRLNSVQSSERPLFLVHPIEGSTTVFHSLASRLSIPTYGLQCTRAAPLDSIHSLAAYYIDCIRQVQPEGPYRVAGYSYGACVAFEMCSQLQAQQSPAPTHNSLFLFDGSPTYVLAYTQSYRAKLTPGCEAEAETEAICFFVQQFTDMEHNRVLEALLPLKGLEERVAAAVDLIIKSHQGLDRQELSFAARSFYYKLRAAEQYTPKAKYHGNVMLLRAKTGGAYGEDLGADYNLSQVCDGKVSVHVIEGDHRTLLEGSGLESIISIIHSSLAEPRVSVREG

[11] = HIV-1 AD8 envelope cell-cell fusion blockers – cherry-pick, dose response (AID 652062); assay type: functional, cell-based;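 note: luciferase signal from cell-cell fusion driven by HIV-1 clade B AD8 Env; potency is for inhibitors of fusion seen as a drop in luminescence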
[12] = blockers of HIV-1 envelope-mediated cell-cell fusion – cherry-pick, dose response (AID 652057); assay type: functional, cell-based
[13] = target: FAD-linked sulfhydryl oxidase ALR (Homo sapiens, UniProt P55789); test: ALR-catalysed DTT oxidation blockers – biochemical, H2O2 detection, luminescence, cherry-pick, dose response (AID 493248)
Sequence of FAD-linked sulfhydryl oxidase ALR (P55789 whole entry): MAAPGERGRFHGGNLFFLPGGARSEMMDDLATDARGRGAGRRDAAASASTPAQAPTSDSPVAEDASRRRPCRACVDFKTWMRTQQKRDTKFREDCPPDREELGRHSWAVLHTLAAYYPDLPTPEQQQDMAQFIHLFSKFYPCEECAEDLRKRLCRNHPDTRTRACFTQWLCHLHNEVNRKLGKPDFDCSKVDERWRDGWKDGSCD

Large T antigen = Large T antigen (Simian virus 40, UniProt P03070); assay type: functional, Betapolyomavirus macacae;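 note: Confirmatory-stage PubChem screen for compounds that inhibit SV40 T antigen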
Sequence of Large T antigen (P03070 whole entry): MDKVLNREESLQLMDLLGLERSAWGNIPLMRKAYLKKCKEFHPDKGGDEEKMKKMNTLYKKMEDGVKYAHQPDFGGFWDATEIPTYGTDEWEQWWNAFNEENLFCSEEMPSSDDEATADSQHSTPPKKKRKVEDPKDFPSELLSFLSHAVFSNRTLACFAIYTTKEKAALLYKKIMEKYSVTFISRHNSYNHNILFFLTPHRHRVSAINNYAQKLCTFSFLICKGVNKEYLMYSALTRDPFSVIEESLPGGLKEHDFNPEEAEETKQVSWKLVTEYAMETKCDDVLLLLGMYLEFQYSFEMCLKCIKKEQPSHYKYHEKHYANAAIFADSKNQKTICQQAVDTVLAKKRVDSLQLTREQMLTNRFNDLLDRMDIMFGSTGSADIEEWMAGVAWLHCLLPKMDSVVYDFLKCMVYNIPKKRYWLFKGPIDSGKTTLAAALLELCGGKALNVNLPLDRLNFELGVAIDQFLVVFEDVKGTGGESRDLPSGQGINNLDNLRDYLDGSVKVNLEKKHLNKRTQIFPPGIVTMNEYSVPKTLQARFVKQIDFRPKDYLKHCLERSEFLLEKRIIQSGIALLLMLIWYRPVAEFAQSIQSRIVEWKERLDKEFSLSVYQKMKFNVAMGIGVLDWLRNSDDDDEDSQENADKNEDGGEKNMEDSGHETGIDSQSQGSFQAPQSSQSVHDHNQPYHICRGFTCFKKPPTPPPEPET

[14] = target: DNA dC->dU-editing enzyme APOBEC-3G (Homo sapiens, UniProt Q9HC16); test: Dose Response confirmation of small molecule APOBEC3G DNA Deaminase Inhibitors via a fluorescence-based single-stranded DNA deaminase assay. [Related pubchem assays (depositor defined):AID493012, AID493028]; assay type: functional
Sequence of DNA dC->dU-editing enzyme APOBEC-3G (Q9HC16 whole entry): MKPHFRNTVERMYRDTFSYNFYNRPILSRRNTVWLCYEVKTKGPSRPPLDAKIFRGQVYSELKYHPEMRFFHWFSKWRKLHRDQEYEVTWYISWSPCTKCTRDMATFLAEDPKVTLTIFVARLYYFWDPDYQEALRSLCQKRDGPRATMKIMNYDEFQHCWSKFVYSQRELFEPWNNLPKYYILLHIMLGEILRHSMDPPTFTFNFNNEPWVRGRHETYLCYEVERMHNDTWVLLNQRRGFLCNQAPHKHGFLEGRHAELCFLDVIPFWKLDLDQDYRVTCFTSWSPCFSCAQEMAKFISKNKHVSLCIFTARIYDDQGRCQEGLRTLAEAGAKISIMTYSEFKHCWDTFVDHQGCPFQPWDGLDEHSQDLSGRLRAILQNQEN

[15] = fluconazole-exposed Candida albicans growth modulators – fluorescence, retest, confirmation (AID 2467); assay type: functional, cell-based
[16] = NIH-3T3 fibroblast cytotoxicity, dose response, cytotoxicity control, cell-based, fluorescence, Alamar Blue, secondary assay (AID 2327); assay type: functional;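 note: NIH-3T3 mouse fibroblasts cultured with fluconazole at 8 µg/mL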

Question: For `CCc1nc2ccccc2n1CC(=O)N(C(C)CC)C1CCS(=O)(=O)C1` (stereo unspecified), which IC50 (Protein skinhead-1) is on record?
Answer: The IC50 was > 100 µM (inactive).

Question: With `COC(=O)c1cn(NC(=O)C2COc3ccccc3O2)c(=O)c2ccccc12` (stereo unspecified) as the compound, how does the IC50 (Protein skinhead-1) read?
Answer: The IC50 was > 100 µM (inactive).

Question: For `Cn1c(-c2ccc(F)cc2)cnc1NCc1ccc(F)cc1F`, which EC50 [1] is on record?
Answer: Its EC50 is 2.66 µM (active).

Question: For `O=C(CSc1nc(O)c(C2CCCCC2)c(O)n1)NCC1CCCO1` (stereo unspecified), which IC50 (Protein skinhead-1) is on record?
Answer: The IC50 was > 100 µM (inactive).

Question: What does the source list for `CC(Sc1nnc(-c2cccnc2)n1-c1ccccc1)C(=O)NCc1ccc2c(c1)OCO2` (stereo unspecified)?
Answer: EC50 [2]: 16.5 µM (active); EC50 [3]: 9.46 µM (active); EC50 (H4): 38 µM (active)

Question: With `CNc1sc(C(=O)c2ccccc2F)c(N)c1-c1nc2ccccc2s1` as the compound, how does the IC50 [4] read?
Answer: Its IC50 is 4.92 µM (active).

Question: What about the IC50 [5] of the same compound?
Answer: Its IC50 is > 66 µM (inactive).

Question: And the IC50 [6]?
Answer: The IC50 was 49.5 µM (inactive).

Question: Which IC50 (Protein skinhead-1) does the source give for `CCC(c1nnnn1CCOC)N1CCN(Cc2ccccc2)CC1` (stereo unspecified) here?
Answer: Its IC50 is > 100 µM (inactive).

Question: Which IC50 (Protein skinhead-1) does the source give for `COC(=O)CSc1nnc(SCc2ccc(OC)cc2)s1` here?
Answer: The IC50 was > 100 µM (inactive).

Question: For `CC(NC(=O)c1ccco1)C(c1cccs1)N1CCN(c2ccccc2)CC1` (stereo unspecified), which EC50 [1] is on record?
Answer: The EC50 was 0.376 µM (active).

Question: Which EC50 [2] does the source give for `O=C(Nc1cccc2ccccc12)c1onc2c1CCCC2` here?
Answer: The EC50 was 78.7 µM (active).

Question: And the EC50 [3]?
Answer: The EC50 was 0.192 µM (active).

Question: And the EC50 (H4)?
Answer: Its EC50 is > 120 µM (not active).

Question: Which EC50 [2] does the source give for `CC(C)CN=C(S)NC1CC2CCCC(C1)N2C1CCCCC1` (stereo unspecified) here?
Answer: Its EC50 is > 120 µM (not active).

Question: What about the EC50 [3] of the same compound?
Answer: The EC50 was > 120 µM (not active).

Question: And the EC50 (H4)?
Answer: The EC50 was 44.3 µM (active).

Question: Which results are given for `O=C(Cn1c2ccccc2c(=O)c2cc([N+](=O)[O-])ccc21)Nc1ccccc1Cl`?
Answer: EC50 (BJ [7]): > 150 µM (not active); EC50 (BJ [8]): > 75 µM (inconclusive); EC50 [9]: > 150 µM (inconclusive); EC50 (BJ [10]): > 150 µM (not active)

Question: With `CC1=NN(c2ccccc2)C(=O)/C1=C/c1ccc[nH]1` as the compound, how does the IC50 (Nonstructural protein 1) read?
Answer: Its IC50 is 33 µM (active).

Question: For `O=C(Nc1ccc2c(c1)OCO2)c1ccc(Br)o1`, which EC50 [2] is on record?
Answer: The EC50 was > 120 µM (not active).

Question: What about the EC50 [3] of the same compound?
Answer: Its EC50 is 0.165 µM (active).

Question: What about the EC50 (H4) of the same compound?
Answer: Its EC50 is > 120 µM (not active).

Question: Which AC50 (INS1) does the source give for `CCn1c(=O)c([N+](=O)[O-])c(N2CCN(Cc3ccc4c(c3)OCO4)CC2)c2ccccc21` here?
Answer: Its AC50 is 26.1 µM (active).

Question: What about the IC50 (Fatty acid synthase) of the same compound?
Answer: The IC50 was 1.8 µM (active).

Question: Which IC50 (Protein skinhead-1) does the source give for `CSC(=NCCCN1CCOCC1)NS(=O)(=O)c1cccs1` here?
Answer: Its IC50 is > 100 µM (inactive).

Question: With `Cc1ccc(C(C(=O)NC(C)(C)C)N(C(=O)CCC(=O)Nc2ccccn2)c2ccccc2F)cc1` (stereo unspecified) as the compound, how does the EC50 [1] read?
Answer: The EC50 was 2.99 µM (active).

Question: For `CC(C)NC(=O)Nc1ccc2c(c1)C(=O)N([C@H](C)CO)C[C@@H](C)[C@@H](CN(C)C(=O)CCC(F)(F)F)OCCCC[C@@H](C)O2`, which AC50 [11] is on record?
Answer: The AC50 was 1.02 µM (active).

Question: And the AC50 [12]?
Answer: Its AC50 is < 260 nM (active).

Question: For `Cc1cccc(S(=O)(=O)N/N=c2\sc3ccccc3n2C)c1`, which EC50 [2] is on record?
Answer: The EC50 was 10.1 µM (active).

Question: What about the EC50 [3] of the same compound?
Answer: The EC50 was 5.13 µM (active).

Question: And the EC50 (H4)?
Answer: The EC50 was 23.2 µM (active).

Question: Which results are given for `Oc1ccc(/C=N/n2c(S)nnc2COc2ccccc2)cc1O`?
Answer: AC50 [13]: 5 nM (active); IC50 (Large T antigen): 6.29 µM (active); IC50 [14]: 2.1 µM (active); EC50 [15]: > 38 µM (not active); EC50 [16]: 24.6 µM (active)
